According to patent EP1019392B1, “TRICYCLIC AMIDES USEFUL FOR INHIBITION OF G-PROTEIN FUNCTION AND FOR TREATMENT OF PROLIFERATIVE DISEASES” (SCHERING CORPORATION, priority 1995, dated 1997):
Values joined by “and” are separate entries in the source; they are usually repeats but may differ in a detail not shown here. Equal values may be shown once. Read-outs that look alike come from different tables or passages of the source.

Experiments:
[1] = test system: DLD-1 (human colon carcinoma cells, ATCC # CCL 221); experiment: In Vivo Anti-Tumor Studies, subcutaneous DLD-1 tumors; set-up: species or system athymic nu/nu female mice; conditions: Mus musculus, DLD-1, po, QID, 4 weeks, range over the listed compounds; for inhibition in vivo at 10 mg/kg: 10 mg/kg p.o.; for inhibition in vivo at 50 mg/kg: 50 mg/kg p.o.
Text: Tumor cells (5 X 10^5 to 8 X 10^6) of DLD-1 (human colon carcinoma cells, ATCC # CCL 221) are innolculated subcutaneously into the flank of 5-6 week o;d athymic nu/nu female mice.

[2] = target: T1, farnesyl protein transferase (FPT) (Rattus norvegicus, UniProt Q02293+Q04631); experiment: In vitro enzyme assay: inhibition of farnesyl protein transferase (transfer of [3H]farnesyl to Ras-CVLS); format: biochemical
T1 construct: were partially purified from rat brain by ammonium sulfate fractionation followed by Q-Sepharose; from tissue; host or cells: rat brain

Human tumor cells = experiment: Soft Agar Assay (anchorage-independent growth); format: cell-based; conditions: range over 5 tumor cell lines (K ras NIH 3T3, H ras NIH 3T3, HTB 177, A549, HTB 175), read-out: IC50 for each cell line
[3] = test system: Ras-CVLL in COS monkey kidney cells; experiment: COS cell assay: geranylgeranylation of Ras-CVLL (Western blot); format: cell-based
[4] = Table 1, partially purified rat brain FPT, Ras-CVLS, read-out: FPT IC50
[5] = Table 2, comparison with GGPT, read-out: ENZYME INHIBITION FPT IC50
[6] = FPT IC50, Table 1, partially purified rat brain FPT, Ras-CVLS

Row | IC50 (Human tumor cells) [nM] | SMILES | inhibition in vivo at 10 mg/kg [1] [%] | inhibition in vivo at 50 mg/kg [1] [%] | IC50 [2, 4] | IC50 [2, 5] | did not block the geranylgeranylation of Ras-CVLL at concentrations up to [3] [µM] | IC50 [2, 6]
1 | – | O=C(Cc1cc[n+]([O-])cc1)N1CCC(=C2c3ncc(Br)cc3CCc3cc(Cl)cc(Br)c32)CC1 (racemic) [Example 7] | 7 to 50 | 35.4 to 83 | 12 nM | 12 nM | – | –
2 | – | NC(=O)N1CCC(CC(=O)N2CCC(C3c4ccc(Cl)c(Br)c4CCc4cc(Br)cnc43)CC2)CC1 (single isomer, unassigned) [Example 13] | 7 to 50 | 35.4 to 83 | 5 nM | 5 nM | – | –
3 | – | O=C(Cc1cc[n+]([O-])cc1)N1CCC(C2c3ccc(Cl)c(Br)c3CCc3cc(Br)cnc32)CC1 (single isomer, unassigned) [Example 14A] | 7 to 50 | 35.4 to 83 | 2.6 nM | 2.6 nM | – | –
4 | 175 to 800 | NC(=O)N1CCC(CC(=O)N2CCC(C3c4ncc(Br)cc4CCc4cc(Cl)cc(Cl)c43)CC2)CC1 (single isomer, unassigned) [Example 18] | 7 to 50 | 35.4 to 83 | 3.1 nM | 3.1 nM | – | –
5 | – | O=C(Cc1cc[n+]([O-])cc1)N1CCC(=C2c3ccc(Cl)c(Br)c3CCc3cc(Br)cnc32)CC1 [Example 2] | 7 to 50 | 35.4 to 83 | 10 nM and 16 nM | 10 nM and 16 nM | > 33 | –
6 | – | O=C(Cc1cc[n+]([O-])cc1)N1CCN([C@H]2c3ccc(Cl)c(Br)c3CCc3cc(Br)cnc32)CC1 [Example 5] | 7 to 50 | 35.4 to 83 | 2.3 nM | 2.3 nM | – | –
7 | – | O=C(Cc1cc[n+]([O-])cc1)N1CCC([C@H]2c3ncc(Br)cc3CCc3cc(Cl)cc(Br)c32)CC1 [Example 9] | 7 to 50 | 35.4 to 83 | 1.3 nM | 1.3 nM | – | –
8 | – | O=C(Cc1cc[n+]([O-])cc1)N1CCN([C@H]2c3ncc(Br)cc3CCc3cc(Cl)cc(Br)c32)CC1 [Example 11A] | 7 to 50 | 35.4 to 83 | 1.8 nM and 2.1 nM | 1.8 nM and 2.1 nM | – | –
9 | – | O=C(Cc1cc[n+]([O-])cc1)N1CCN([C@@H]2c3ccc(Cl)cc3CCc3cc(Br)cnc32)CC1 [Example 16A] | – | – | – | – | – | 32 nM and 26 nM
10 | – | O=C(Cc1cc[n+]([O-])cc1)N1CCN([C@H]2c3ccc(Cl)cc3CCc3cc(Br)cnc32)CC1 [Example 16B] | 7 to 50 | 35.4 to 83 | – | – | – | 38 nM and 23 nM
